Reference: BindingDB's records for patent US12509424 (Nippon Shinyaku, 2025)
pIC50: −log10 of the molar value.

Biological target: Platelet-derived growth factor receptor beta (Homo sapiens, UniProt P09619)
Experiment: PDGFR-β Tyrosine Kinase Inhibitory Action
Protocol: This DMSO solution was diluted by 8 times with an assay buffer 1 (50 mM HEPES (pH 7.0), 0.02% NaN3, 0.01% Bovine Serum Albumin, 0.1 mM orthovanadate, 1 mM Dithiothreitol, 5 mM MgCl2, and 1 mM MnCl2) and further diluted by 5 times with an assay buffer 2 (50 mM HEPES (pH 7.0), 0.02% NaN3, 0.01% Bovine Serum Albumin, 0.1 mM orthovanadate, 1 mM Dithiothreitol, 5 mM MgCl2, 1 mM MnCl2, and 40 nM Supplemented Enzymatic Buffer (cisbio)).2. Measurement of PDGFR-β Tyrosine Kinase Inhibitory ActionFor the measurement, the HTRF KinEASE-TK kit from Cisbio Bioassays SAS was used. To a 384 well plate, the test substance solution was added at 4 μL each, then 2 μL of a PDGFR-β enzyme solution (final concentration of 1 ng/μL, Carna Biosciences, Inc.) and 4 μL of a substrate solution obtained by adding 0.6 μM ATP to TK substrate-3-biotin (cisbio) were added, and the solution was allowed to react at 30° C. for 30 minutes at a final concentration of the test substance being 0.01 to 10,000 nM.Thereafter, 10 μL of a detection solution (cisbio) was added to each well and allowed to react at 30° C. for 1 hour. The fluorescence intensity was measured with a microplate reader (Spectra Max M5, Molecular device).

Chain of Platelet-derived growth factor receptor beta (P09619 whole entry): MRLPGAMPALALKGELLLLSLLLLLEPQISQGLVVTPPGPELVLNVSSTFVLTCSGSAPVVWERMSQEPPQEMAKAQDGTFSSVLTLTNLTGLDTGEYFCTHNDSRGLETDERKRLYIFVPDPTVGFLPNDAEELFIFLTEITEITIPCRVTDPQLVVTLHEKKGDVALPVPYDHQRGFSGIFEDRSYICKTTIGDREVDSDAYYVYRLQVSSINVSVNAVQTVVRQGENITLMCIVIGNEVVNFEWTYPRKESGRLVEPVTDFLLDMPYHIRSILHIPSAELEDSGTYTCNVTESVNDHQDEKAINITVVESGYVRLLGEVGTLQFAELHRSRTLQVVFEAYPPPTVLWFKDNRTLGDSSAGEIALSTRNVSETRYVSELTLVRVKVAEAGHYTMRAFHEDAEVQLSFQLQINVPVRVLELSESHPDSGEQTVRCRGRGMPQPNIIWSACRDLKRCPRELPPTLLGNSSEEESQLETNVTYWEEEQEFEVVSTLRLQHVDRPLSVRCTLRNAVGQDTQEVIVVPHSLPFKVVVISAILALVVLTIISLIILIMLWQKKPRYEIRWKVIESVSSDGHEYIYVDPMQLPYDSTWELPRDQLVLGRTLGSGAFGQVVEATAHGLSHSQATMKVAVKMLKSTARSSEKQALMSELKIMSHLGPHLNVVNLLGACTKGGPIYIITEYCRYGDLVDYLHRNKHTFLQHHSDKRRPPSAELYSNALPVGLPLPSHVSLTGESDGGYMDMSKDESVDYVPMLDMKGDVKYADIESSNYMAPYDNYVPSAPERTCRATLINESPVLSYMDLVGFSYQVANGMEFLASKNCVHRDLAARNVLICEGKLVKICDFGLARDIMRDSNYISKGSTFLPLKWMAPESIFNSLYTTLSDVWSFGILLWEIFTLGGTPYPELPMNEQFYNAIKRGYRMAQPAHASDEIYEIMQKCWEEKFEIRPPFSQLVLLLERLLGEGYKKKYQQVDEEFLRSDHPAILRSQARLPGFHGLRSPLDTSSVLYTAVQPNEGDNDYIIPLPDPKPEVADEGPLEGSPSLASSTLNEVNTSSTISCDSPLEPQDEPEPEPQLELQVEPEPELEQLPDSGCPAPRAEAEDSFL

- pIC50: 7.18
SMILES: CC(=O)Nc1ccc(CNc2cc(C(=O)N[C@H]3CCCC[C@@H]3O)ccc2C)cn1 [US12509424, Example 116]
